Consider 19 compounds from patent US20240382465A1, “AROMATIC ACETYLENE DERIVATIVE, AND PREPARATION METHOD THEREFOR AND USE THEREOF” (priority 2021, published 2024).

For one experiment, the system named is K. pneumoniae ATCC13883. Put plainly: Antibacterial activity, MIC by broth microdilution (CLSI). In kind it is cell-based. Conditions: Klebsiella pneumoniae; K. pneumoniae ATCC13883, 35° C., 18 to 24 hours; read-out: MIC(K. Pneumoniae). In a few lines: (§1)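 Broth microdilution per CLSI, compound at 64-0.06 μg/mL final in twofold steps (1% DMSO from 100× working solutions). Inoculum 5×10^5 cfu/ml; plates incubated at 35° C for 18-24 hours.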
For orientation: In broth dilution the organism is exposed to a series of concentrations in liquid medium.

In a further experiment the test system is E. coli ATCC 25922. The description is as above. In kind it is cell-based. Conditions: Escherichia coli, ATCC25922; E. coli ATCC 25922, 35° C., 18 to 24 hours; read-out: MIC(E. coli). The method, boiled down:
as §1

For experiment [1], the target named is recombinant Pseudomonas aeruginosa LpxC (Pseudomonas aeruginosa (strain ATCC 15692 / DSM 22644 / CIP 104116 / JCM 14847 / LMG 12228 / 1C / PRS 101 / PAO1), UniProt P47205). Put plainly: Inhibition of LpxC enzymatic activity (fluorescamine assay). In kind it is biochemical. The method, boiled down: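 Recombinant P. aeruginosa LpxC (5 nM) with substrate UDP-3-O-(R-3-hydroxydecanoyl)-GlcNAc (10 μM), 120 min at 25 °C; compound 8 points, 4-fold dilution, 0.61-10,000 nM. Product detected by fluorescamine (ex 390/em 495 nm) after stopping with pH 8.0 phosphate; % inhibition versus DMSO control.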

Where [2] appears, read: recombinant P. aeruginosa LpxC 5 nM, substrate 10 μM, 25° C., 120 minutes, read-out: IC50.

Each structure is given as a SMILES string. In brackets after ≈: the same amount, converted by molar mass. Like-named read-outs stand apart in the source and are kept apart here.

Broadly, the MIC is the smallest concentration in the dilution series that meets the test's criterion for growth inhibition. By IC50 is commonly meant the concentration needed to halve the response being measured. Take `C[C@H](O)c1nccn1Cc1cc(-c2ccc(C#Cc3ccc(CCC(N)=O)nc3)cc2)on1` [Example 40, (S)-3-(5-((4-(3-((2-(1-hydroxyethyl)-1H-imidazol-1-yl)methyl)isoxazol-5-yl)phenyl)ethynyl)pyridin-2-yl)propanamide]: the MIC was 4 µg/mL (≈ 9.06 µM) with K. pneumoniae ATCC13883 and 1 µg/mL (≈ 2.27 µM) in the experiment with E. coli ATCC 25922. In addition, the IC50 in experiment [1] (setting [2]) was 16.7 nM.
For `C[C@H](O)c1nccn1Cc1cc(-c2ccc(C#Cc3ccc(CCC(=O)O)cc3)cc2)on1` [Example 27, (S)-3-(4-((4-(3-((2-(1-hydroxyethyl)-1H-imidazol-1-yl)methyl)isoxazol-5-yl)phenyl)ethynyl)phenyl)propanoic acid], in that order: 2 µg/mL (≈ 4.53 µM), 1 µg/mL (≈ 2.27 µM) and 4.25 nM.
On to `C[C@H](O)c1nccn1Cc1cc(-c2ccc(C#Cc3ccc(CNCCO)cc3)cc2)on1` [Example 34, (S)-2-((4-((4-(3-((2-(1-hydroxyethyl)-1H-imidazol-1-yl)methyl)isoxazol-5-yl)phenyl)ethynyl)benzyl)amino)ethan-1-ol], for which the MIC is 2 µg/mL (≈ 4.52 µM) in the experiment on K. pneumoniae ATCC13883 and 1 µg/mL (≈ 2.26 µM) in the experiment on E. coli ATCC 25922. For the same compound, the IC50 in experiment [1] came out at 4.86 nM.
As for `C[C@H](O)c1nccn1Cc1cc(-c2ccc(C#Cc3ccc(CN4CCOCC4)cc3)cc2)on1` [Example 2, (S)-1-(1-((5-(4-((4-(morpholinomethyl)phenyl)ethynyl)phenyl)isoxazol-3-yl)methyl)-1H-imidazol-2-yl)ethan-1-ol], the MIC in the experiment with K. pneumoniae ATCC13883 is 1 µg/mL (≈ 2.13 µM); with E. coli ATCC 25922, 0.5 µg/mL (≈ 1.07 µM). Besides, in experiment [1] (setting [2]), the IC50 was 3.07 nM.
On to `C[C@H](O)c1nccn1Cc1cc(-c2ccc(C#Cc3ccc(CN4CCNC(=O)C4)nc3)cc2)on1` [Example 114, (S)-4-((5-((4-(3-((2-(1-hydroxyethyl)-1H-imidazol-1-yl)methyl)isoxazol-5-yl)phenyl)ethynyl)pyridin-2-yl)methyl)piperazin-2-one], for which the figures for the MIC in the experiment on K. pneumoniae ATCC13883 and with E. coli ATCC 25922 were 8 µg/mL (≈ 16.6 µM) and 2 µg/mL (≈ 4.14 µM), respectively. The IC50 in experiment [1] (setting [2]) turned out to be 10.5 nM.
For `C[C@H](O)c1nccn1Cc1cc(-c2ccc(C#Cc3ccc(CNCCC(=O)O)cc3)cc2)on1` [Example 55, (S)-3-((4-((4-(3-((2-(1-hydroxyethyl)-1H-imidazol-1-yl)methyl)isoxazol-5-yl)phenyl)ethynyl)benzyl)amino)propanoic acid], the minimal inhibitory concentration (MIC) with K. pneumoniae ATCC13883 and with E. coli ATCC 25922 was 8 µg/mL (≈ 17 µM) each time. The IC50 in experiment [1] (setting [2]) came out at 24.4 nM.
On to `C[C@H](O)c1nccn1Cc1cc(-c2ccc(C#Cc3ccc(CN4CC(C#N)C4)cc3)cc2)on1` [Example 52, (S)-1-(4-((4-(3-((2-(1-hydroxyethyl)-1H-imidazol-1-yl)methyl)isoxazol-5-yl)phenyl)ethynyl)benzyl)azetidin-3-carbonitrile], for which the MIC in the experiment with K. pneumoniae ATCC13883 was 1 µg/mL (≈ 2.16 µM); in the experiment with E. coli ATCC 25922 it was 0.25 µg/mL (≈ 0.539 µM). Also, the IC50 in experiment [1] (setting [2]) was determined as 11.2 nM.
As to `C[C@H](O)c1nccn1Cc1cc(-c2ccc(C#Cc3cccc(C(N)=O)c3)cc2)on1` [Example 63, (S)-3-((4-(3-((2-(1-hydroxyethyl)-1H-imidazol-1-yl)methyl)isoxazol-5-yl)phenyl)ethynyl)benzamide], the MIC in the experiment with K. pneumoniae ATCC13883 was 4 µg/mL (≈ 9.7 µM); in the experiment on E. coli ATCC 25922 it was 2 µg/mL (≈ 4.85 µM). Besides, the IC50 in experiment [1] (setting [2]) was 65.1 nM.
Take `C[C@H](O)c1nccn1Cc1cc(-c2ccc(C#Cc3ccc(C(=O)O)cc3)cc2)on1` [Example 24, (S)-4-((4-(3-((2-(1-hydroxyethyl)-1H-imidazol-1-yl)methyl)isoxazol-5-yl)phenyl)ethynyl)benzoic acid]: the MIC in the experiment with K. pneumoniae ATCC13883 is 8 µg/mL (≈ 19.4 µM); with E. coli ATCC 25922, 4 µg/mL (≈ 9.68 µM). The IC50 in experiment [1] (setting [2]) came out at 22.2 nM.
Take `C[C@H](O)c1nccn1Cc1cc(-c2ccc(C#Cc3ccc(CO)cc3)cc2)on1` [Example 46, (S)-1-(1-((5-(4-((4-(hydroxymethyl)phenyl)ethynyl)phenyl)isoxazol-3-yl)methyl)-1H-imidazol-2-yl)ethan-1-ol]: the MIC in the experiment with K. pneumoniae ATCC13883 stood at 0.5 µg/mL (≈ 1.25 µM); with E. coli ATCC 25922, 0.25 µg/mL (≈ 0.626 µM). In addition, the IC50 in experiment [1] (setting [2]) worked out at 23 nM.
Take `C[C@H](O)c1nccn1Cc1cc(-c2ccc(C#Cc3ccc(CN4CC(C(N)=O)C4)cc3)cc2)on1` [Example 53, (S)-1-(4-((4-(3-((2-(1-hydroxyethyl)-1H-imidazol-1-yl)methyl)isoxazol-5-yl)phenyl)ethynyl)benzyl)azetidin-3-carboxamide]: the values for the MIC with K. pneumoniae ATCC13883 and in the experiment with E. coli ATCC 25922 were 4 µg/mL (≈ 8.31 µM) and 1 µg/mL (≈ 2.08 µM), respectively. Also, the IC50 in experiment [1] (setting [2]) came to 13.7 nM.
On to `C[C@H](O)c1nccn1Cc1cc(-c2ccc(C#Cc3ccc(CNCC(N)=O)cc3)cc2)on1` [Example 35, (S)-2-((4-((4-(3-((2-(1-hydroxyethyl)-1H-imidazol-1-yl)methyl)isoxazol-5-yl)phenyl)ethynyl)benzyl)amino)acetamide], for which the MIC was determined as 0.5 µg/mL (≈ 1.1 µM) in the experiment on K. pneumoniae ATCC13883 and 0.25 µg/mL (≈ 0.549 µM) in the experiment with E. coli ATCC 25922. For the same compound, in experiment [1], the IC50 is 14.9 nM.
As to `C[C@H](O)c1nccn1Cc1cc(-c2ccc(C#Cc3ccc(CNCCN)cc3)cc2)on1` [Example 57, (S)-1-(1-((5-(4-((4-(((2-aminoethyl)amino)methyl)phenyl)ethynyl)phenyl)isoxazol-3-yl)methyl)-1H-imidazol-2-yl)ethan-1-ol], the MIC is 4 µg/mL (≈ 9.06 µM) in the experiment with K. pneumoniae ATCC13883 and 2 µg/mL (≈ 4.53 µM) in the experiment on E. coli ATCC 25922. The IC50 in experiment [1] (setting [2]) amounted to 14.1 nM.
Take `C[C@H](O)c1nccn1Cc1cc(-c2ccc(C#Cc3cccc(OCC(N)=O)c3)cc2)on1` [Example 64, (S)-2-(3-((4-(3-((2-(1-hydroxyethyl)-1H-imidazol-1-yl)methyl)isoxazol-5-yl)phenyl)ethynyl)phenoxy)acetamide]: the MIC with K. pneumoniae ATCC13883 came out at 2 µg/mL (≈ 4.52 µM); in the experiment on E. coli ATCC 25922 it was 4 µg/mL (≈ 9.04 µM). The IC50 in experiment [1] (setting [2]) worked out at 21.6 nM.
As for `C[C@H](O)c1nccn1Cc1cc(-c2ccc(C#Cc3cccc(OCC#N)c3)cc2)on1` [Example 38, (S)-2-(3-((4-(3-((2-(1-hydroxyethyl)-1H-imidazol-1-yl)methyl)isoxazol-5-yl)phenyl)ethynyl)phenoxy)acetonitrile], the minimal inhibitory concentration (MIC) was 1 µg/mL (≈ 2.36 µM) with K. pneumoniae ATCC13883 and 0.5 µg/mL (≈ 1.18 µM) in the experiment with E. coli ATCC 25922. In addition, the IC50 in experiment [1] (setting [2]) was determined as 50.8 nM.
Regarding `C[C@H](O)c1nccn1Cc1cc(-c2ccc(C#Cc3ccc(C(N)=O)cc3)cc2)on1` [Example 23, (S)-4-((4-(3-((2-(1-hydroxyethyl)-1H-imidazol-1-yl)methyl)isoxazol-5-yl)phenyl)ethynyl)benzamide], the values for the MIC with K. pneumoniae ATCC13883 and with E. coli ATCC 25922 were 1 µg/mL (≈ 2.42 µM) and 0.25 µg/mL (≈ 0.606 µM), respectively. Also, the IC50 in experiment [1] (setting [2]) amounted to 7.75 nM.
On to `C[C@H](O)c1nccn1Cc1cc(-c2ccc(C#Cc3ccc(CN4CCC(O)CC4)nc3)cc2)on1` [Example 36, (S)-1-((5-((4-(3-((2-(1-hydroxyethyl)-1H-imidazol-1-yl)methyl)isoxazol-5-yl)phenyl)ethynyl)pyridin-2-yl)methyl)piperidin-4-ol], for which the results for the MIC in the experiment with K. pneumoniae ATCC13883 and in the experiment on E. coli ATCC 25922 were 4 µg/mL (≈ 8.27 µM) and 2 µg/mL (≈ 4.14 µM), respectively. For the same compound, in experiment [1] (setting [2]), the concentration for half-maximal inhibition (IC50) came out at 8.33 nM.
Turning to `C[C@H](O)c1nccn1Cc1cc(-c2ccc(C#Cc3ccc(CN4CCC(N5CCOCC5)CC4)cc3)cc2)on1` [Example 51, (S)-1-(1-((5-(4-((4-((4-morpholinopiperidin-1-yl)methyl)phenyl)ethynyl)phenyl)isoxazol-3-yl)methyl)-1H-imidazol-2-yl)ethan-1-ol], the MIC with K. pneumoniae ATCC13883 came out at 8 µg/mL (≈ 14.5 µM); in the experiment on E. coli ATCC 25922, 2 µg/mL (≈ 3.63 µM). Further, the IC50 in experiment [1] (setting [2]) stood at 6.7 nM.
Turning to `C[C@H](O)c1nccn1Cc1cc(-c2ccc(C#Cc3ccc(CNCCO)nc3)cc2)on1` [Example 60], the MIC in the experiment on K. pneumoniae ATCC13883 was 4 µg/mL (≈ 9.02 µM); in the experiment on E. coli ATCC 25922, 2 µg/mL (≈ 4.51 µM). Moreover, in experiment [1] (setting [2]), the IC50 came to 26.4 nM.
